This is an account of results in ChEMBL document CHEMBL1201862, “PubChem BioAssay data set” (2004).

Some test systems named below: SF-268; NCI-H226; UACC-257; T47D; TK-10; CAKI-1; MCF7; OVCAR-3; MDA-N; OVCAR-5; MOLT-4; NCI-H460; HOP-62; BT-549; MDA-MB-231; CCRF-CEM; Malme-3M; DU-145; 786-0; SNB-75.
Holding throughout (test): DTP human tumour cell line panel, 48 h

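Each compound was tested at five concentrations against cells in 96-well plates for 48 hours. Here, GI50 denotes the concentration required for 50% inhibition of growth.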 Activity calls are given as the source filed them. Rule as the data show it: active = GI50 up to about 1.1 µM and inactive = higher.

The term GI50 denotes the concentration that inhibits growth by half.

For `Cc1cc2c(cc1Cl)Sc1nnc(C)n1S2(=O)=O`, the GI50 is 14.9 µM (inactive) with SF-268; 30.2 µM (inactive) in the experiment with NCI-H226; 13.9 µM (inactive) in the experiment on UACC-257; 8.18 µM (inactive) in the experiment with T47D; 15.6 µM (inactive) in the experiment with TK-10; 15.6 µM (inactive) in the experiment with CAKI-1. Further, the GI50 in the experiment on MCF7 is 4.44 µM (inactive); in the experiment on OVCAR-3 it was 12.6 µM (inactive); with MDA-N, 13.8 µM (inactive); in the experiment on OVCAR-5 it was 29.2 µM (inactive); in the experiment on MOLT-4, 14.4 µM (inactive); in the experiment with NCI-H460, 23.7 µM (inactive). The GI50 was 20 µM (inactive) with HOP-62; 14.1 µM (inactive) in the experiment with BT-549; 11.7 µM (inactive) with MDA-MB-231; 8.53 µM (inactive) in the experiment with CCRF-CEM; 8.67 µM (inactive) with Malme-3M; 22 µM (inactive) in the experiment with DU-145. Besides, the GI50 in the experiment on 786-0 is 16.1 µM (inactive); with SNB-75, 13.3 µM (inactive).
Turning to `O=[N+]([O-])c1ccc2c(Nc3ccccc3-c3ccccc3Nc3c4ccccc4nc4cc([N+](=O)[O-])ccc34)c3ccccc3nc2c1`, the GI50 in the experiment on SF-268 is 6.55 µM (inactive); in the experiment on NCI-H226, 4.11 µM (inactive); in the experiment with UACC-257, 8.05 µM (inactive); in the experiment with T47D it was 7.24 µM (inactive); with TK-10 it was 4.46 µM (inactive); in the experiment on CAKI-1 it was 6.46 µM (inactive). The GI50 in the experiment with MCF7 was 4.18 µM (inactive); in the experiment on OVCAR-3 it was 3.18 µM (inactive); with MDA-N, 1.17 µM (inactive); in the experiment with OVCAR-5, 25.9 µM (inactive); in the experiment with MOLT-4 it was 4.01 µM (inactive); with NCI-H460, 2.5 µM (inactive). In addition, the GI50 was 9.33 µM (inactive) in the experiment on HOP-62; 1.16 µM (inactive) in the experiment on BT-549; 2.31 µM (inactive) in the experiment on MDA-MB-231; 3.88 µM (inactive) in the experiment on CCRF-CEM; 8.63 µM (inactive) with Malme-3M; 6.89 µM (inactive) in the experiment on DU-145. Further, the GI50 with 786-0 is 1.93 µM (inactive); in the experiment on SNB-75, 4.19 µM (inactive).
As to `C=CCOC(=O)/C(=C\c1ccc(OC)c(OC)c1)c1ccc(OC)c(OC)c1`, the GI50 is 52.7 µM (inactive) with SF-268; > 100 µM (inactive) with NCI-H226; 57.5 µM (inactive) with UACC-257; 29.8 µM (inactive) in the experiment on T47D; 61.2 µM (inactive) in the experiment on TK-10; 62.2 µM (inactive) in the experiment with CAKI-1. In addition, the GI50 in the experiment on MCF7 is 47.2 µM (inactive); in the experiment with OVCAR-3, > 100 µM (inactive); in the experiment on MDA-N, 60.7 µM (inactive); in the experiment with OVCAR-5 it was > 100 µM (inactive); in the experiment on MOLT-4 it was 15.6 µM (inactive); in the experiment on NCI-H460 it was 25.4 µM (inactive). The GI50 with HOP-62 is > 100 µM (inactive); in the experiment on BT-549 it was > 100 µM (inactive); in the experiment with MDA-MB-231 it was > 100 µM (inactive); in the experiment on CCRF-CEM it was 30.8 µM (inactive); with Malme-3M it was 91.6 µM (inactive); with DU-145, > 100 µM (inactive). The values for the GI50 in the experiment with 786-0 and with SNB-75 were 71.3 µM (inactive) and 1.66 µM (inactive), respectively.
Consider `O=[N+]([O-])c1ccc(O)c(/C=N/c2nc(-c3ccccc3)cs2)c1`, for which the GI50 with SF-268 was 27.9 µM (inactive); in the experiment on NCI-H226 it was 24.7 µM (inactive); in the experiment with UACC-257 it was 45.9 µM (inactive); with T47D, 24.3 µM (inactive); in the experiment on TK-10, 42.5 µM (inactive); in the experiment on CAKI-1, 77.6 µM (inactive). Also, the GI50 is 26.8 µM (inactive) in the experiment on MCF7; 35.2 µM (inactive) with OVCAR-3; 27.5 µM (inactive) in the experiment on MDA-N; 31.6 µM (inactive) in the experiment on OVCAR-5; 17.9 µM (inactive) with MOLT-4; 38.1 µM (inactive) in the experiment on NCI-H460. For the same molecule, the GI50 in the experiment on HOP-62 is 26.7 µM (inactive); in the experiment on BT-549, 17.1 µM (inactive); with MDA-MB-231, 33.3 µM (inactive); in the experiment with CCRF-CEM, 43.3 µM (inactive); in the experiment with Malme-3M it was 24.8 µM (inactive); in the experiment with DU-145, 30.4 µM (inactive). The GI50 in the experiment with 786-0 was 34.2 µM (inactive); with SNB-75, 23 µM (inactive).
In the case of `CCCC(=O)[O-].[Na+]` [SODIUM BUTYRATE], the GI50 was 8280 µM (inactive) in the experiment on SF-268; 6250 µM (inactive) in the experiment on NCI-H226; 1000 µM (inactive) in the experiment with UACC-257; 2420 µM (inactive) with T47D; 719 µM (inactive) in the experiment with TK-10; 2770 µM (inactive) with CAKI-1. Also, the GI50 with MCF7 is 1000 µM (inactive); in the experiment on OVCAR-3, 9910 µM (inactive); with MDA-N it was 3580 µM (inactive); in the experiment with OVCAR-5, 7980 µM (inactive); with MOLT-4 it was 3730 µM (inactive); in the experiment with NCI-H460, 2390 µM (inactive). Besides, the GI50 in the experiment on HOP-62 is 7210 µM (inactive); with BT-549, 8040 µM (inactive); in the experiment with MDA-MB-231 it was 5710 µM (inactive); with CCRF-CEM, 2050 µM (inactive); in the experiment on Malme-3M, 543 µM (inactive); in the experiment on DU-145, 2370 µM (inactive). Moreover, the GI50 with 786-0 was 10600 µM (inactive); in the experiment with SNB-75, 9680 µM (inactive).
Take `Nc1nc(Cl)c(N)c(NCC2(CO)CC(CCCc3ccccc3)C2)n1` (stereo not given): the GI50 in the experiment on SF-268 was 23 µM (inactive); in the experiment on NCI-H226, 2.91 µM (inactive); in the experiment with UACC-257, 7.67 µM (inactive); in the experiment with T47D, 5.27 µM (inactive); in the experiment on TK-10 it was 56.2 µM (inactive); with CAKI-1 it was 34.8 µM (inactive). Besides, the GI50 in the experiment with MCF7 is 8.02 µM (inactive); in the experiment with OVCAR-3 it was 19.1 µM (inactive); with MDA-N, 19.3 µM (inactive); in the experiment with OVCAR-5, > 100 µM (inactive); with MOLT-4 it was 5.07 µM (inactive); in the experiment with NCI-H460, 33.7 µM (inactive). Moreover, the GI50 in the experiment with HOP-62 was 59.2 µM (inactive); in the experiment with BT-549, 15.5 µM (inactive); in the experiment with MDA-MB-231, 41.5 µM (inactive); with CCRF-CEM, 0.0451 µM (active); with Malme-3M, 1.26 µM (inactive); in the experiment with DU-145, 68.7 µM (inactive). Moreover, the GI50 was 22.7 µM (inactive) in the experiment on 786-0 and 20.4 µM (inactive) in the experiment on SNB-75.
For `COc1ccc2nc3cccc([N+](=O)[O-])c3c(NCCN(C)C)c2c1`, the GI50 in the experiment on SF-268 was 0.145 µM (active); in the experiment with NCI-H226, 0.207 µM (active); with UACC-257 it was 0.191 µM (active); in the experiment with T47D it was 0.146 µM (active); with TK-10 it was 0.263 µM (active); with CAKI-1, 0.18 µM (active). Further, the GI50 in the experiment on MCF7 is 0.0555 µM (active); in the experiment on OVCAR-3, 0.127 µM (active); in the experiment on MDA-N, 0.124 µM (active); with OVCAR-5 it was 0.173 µM (active); in the experiment on MOLT-4, 0.103 µM (active); in the experiment on NCI-H460 it was 0.0165 µM (active). In addition, the GI50 is 0.119 µM (active) with HOP-62; 0.0369 µM (active) in the experiment on BT-549; 0.156 µM (active) with MDA-MB-231; 0.16 µM (active) in the experiment on CCRF-CEM; 0.0877 µM (active) in the experiment on Malme-3M; 0.0223 µM (active) in the experiment with DU-145. Besides, the GI50 in the experiment on 786-0 is 0.0902 µM (active); in the experiment with SNB-75, 0.159 µM (active).
In the case of `Nc1nc2c(c(-c3cccc(Cl)c3)n1)COC/C2=C\c1cccc(Cl)c1`, the GI50 in the experiment with SF-268 was > 100 µM (inactive); in the experiment on NCI-H226, > 100 µM (inactive); in the experiment on UACC-257, 47.2 µM (inactive); with T47D, 82.6 µM (inactive); with TK-10, 41.8 µM (inactive); with CAKI-1 it was > 100 µM (inactive). Further, the GI50 in the experiment on MCF7, in the experiment with OVCAR-3, with MDA-N, with OVCAR-5, in the experiment with MOLT-4 and with NCI-H460 was > 100 µM (inactive) throughout. In addition, the GI50 with HOP-62 was > 100 µM (inactive); with BT-549 it was > 100 µM (inactive); in the experiment on MDA-MB-231, 52.7 µM (inactive); in the experiment on CCRF-CEM, > 100 µM (inactive); in the experiment on Malme-3M, 37.9 µM (inactive); in the experiment with DU-145, 80.2 µM (inactive). The GI50 in the experiment with 786-0 was 15.6 µM (inactive); with SNB-75 it was 22.9 µM (inactive).
On to `CCOC(=O)c1c(C)n(-c2ccc(Cl)cc2)c2c1cc(O)c1[nH]c3c(c12)CCCC3`, for which the GI50 was 50.5 µM (inactive) in the experiment with SF-268; > 100 µM (inactive) in the experiment with NCI-H226; 47 µM (inactive) with UACC-257; > 100 µM (inactive) in the experiment with T47D; > 100 µM (inactive) in the experiment with TK-10; > 100 µM (inactive) in the experiment on CAKI-1. The GI50 was 34.7 µM (inactive) with MCF7; 54.2 µM (inactive) in the experiment with OVCAR-3; 35.7 µM (inactive) in the experiment with MDA-N; > 100 µM (inactive) in the experiment on OVCAR-5; 26.4 µM (inactive) in the experiment with MOLT-4; 47.5 µM (inactive) in the experiment on NCI-H460. Also, the GI50 in the experiment on HOP-62 is > 100 µM (inactive); with BT-549, 52.7 µM (inactive); with MDA-MB-231 it was > 100 µM (inactive); with CCRF-CEM it was 32.4 µM (inactive); with Malme-3M, 80.2 µM (inactive); with DU-145 it was > 100 µM (inactive). Also, the GI50 is > 100 µM (inactive) in the experiment on 786-0 and 44 µM (inactive) in the experiment on SNB-75.
As to `COC(=O)NC(=O)NC(Cc1ccccc1)NC(=O)OCc1ccccc1` (stereo not given), the GI50 in the experiment on SF-268 was 48.1 µM (inactive); in the experiment on NCI-H226, > 100 µM (inactive); in the experiment on UACC-257 it was > 100 µM (inactive); with T47D, > 100 µM (inactive); with TK-10, 45.4 µM (inactive); in the experiment with CAKI-1, > 100 µM (inactive). In addition, the GI50 with MCF7, in the experiment on OVCAR-3, with MDA-N, with OVCAR-5, in the experiment with MOLT-4 and in the experiment on NCI-H460 was > 100 µM (inactive) each time. The GI50 is 47.2 µM (inactive) in the experiment with HOP-62; 31.1 µM (inactive) in the experiment with BT-549; 18.5 µM (inactive) with MDA-MB-231; > 100 µM (inactive) with CCRF-CEM; > 100 µM (inactive) in the experiment on Malme-3M; > 100 µM (inactive) with DU-145. Moreover, the results for the GI50 in the experiment on 786-0 and in the experiment on SNB-75 were 37.8 µM (inactive) and 20.2 µM (inactive), respectively.
